Measurements as given in US10294202B2, “Pyrrolidinones as herbicides” (FMC Corporation, priority 2013, dated 2019).

Key:
Experiment in all cases: Test C pre-/postemergence herbicide test
foxtail, green = format: in vivo, Setaria viridis
Summary of the method: (§1)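 Pre-emergence: seeds sown in loam/sand blend and treated with compound in surfactant-containing solvent. Post-emergence: plants at 2–18 cm (1- to 4-leaf stage) in peat-based medium sprayed with the same formulation. Visual rating versus controls after 13–15 days in greenhouse, scale 0 (no effect) to 100 (complete control).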

sunflower = format: in vivo, Helianthus annuus; conditions: Preemergence
Summary of the method: as §1

bermudagrass = format: in vivo, Cynodon dactylon
From the text: (§2) Seeds of plant species selected from blackgrass (Alopecurus myosuroides), ryegrass, Italian (Italian ryegrass, Lolium multiflorum), wheat (winter wheat, Triticum aestivum), galium (catchweed bedstraw, Galium aparine), corn (Zea mays), crabgrass, large (large crabgrass, Digitaria sanguinalis), foxtail, giant (giant foxtail, Setaria faberii), johnsongrass (Sorghum halepense), lambsquarters (Chenopodium album), morningglory (Ipomoea coccinea), nutsedge, yellow (yellow nutsedge, Cyperus esculentus), pigweed (Amaranthus retroflexus), ragweed (common ragweed, Ambrosia elatior), soybean (Glycine max), barnyardgrass (Echinochloa crus-galli), oilseed rape (Brassica napus), waterhemp (common waterhemp, Amaranthus rudis), kochia (Kochia scoparia), oat, wild (wild oat, Avena fatua), surinam grass (Brachiaria decumbens), foxtail, green (green foxtail, Setaria viridis), goosegrass (Eleusine indica), bromegrass, downy (downy bromegrass, Bromus tectorum), nightshade (eastern black nightshade, Solanum ptycanthum), cocklebur (common cocklebur, Xanthium strumarium), cupgrass, woolly (woolly cupgrass, Eriochloa villosa), bermudagrass (Cynodon dactylon), sunflower, (common oilseed sunflower, Helianthus annuus), Russian thistle (Salsola kali) and velvetleaf (Abutilon theophrasti) were planted into a blend of loam soil and sand and treated preemergence with test chemicals formulated in a non-phytotoxic solvent mixture which included a surfactant. At the same time, plants selected from these crop and weed species and also barley (winter barley, Hordeum vulgare), […]), chickweed (common chickweed, Stellaria media), deadnettle (henbit deadnettle, Lamium amplexicaule), and canarygrass (littleseed canarygrass, Phalaris minor) were planted in pots containing Redi-Earth® planting medium (Scotts Company, 14111 Scottslawn Road, Marysville, Ohio 43041) comprising spaghnum peat moss, vermiculite, wetting agent and starter nutrients and treated with postemergence applications of test chemicals formulated in the same manner. Plants ranged in height from 2 to 18 cm (1- to 4-leaf stage) for postemergence treatments. Treated plants and controls were maintained in a greenhouse for 13 to 15 days, after which time all species were compared to controls and visually evaluated. Plant response ratings, summarized in Table C, are based on a scale of 0 to 100 where 0 is no effect and 100 is complete control. A dash (-) response means no test result.

cupgrass, woolly = format: in vivo, Eriochloa villosa
Summary of the method: as §1

nightshade = format: in vivo, Solanum ptycanthum; conditions: Preemergence
From the text: as §2

Russian thistle = format: in vivo, Salsola kali; conditions: Preemergence
From the text: as §2

bromegrass, downy = format: in vivo, Bromus tectorum
Summary of the method: as §1

cocklebur = format: in vivo, Xanthium strumarium
Summary of the method: as §1

goosegrass = format: in vivo, Eleusine indica
From the text: as §2

surinam grass = format: in vivo, Brachiaria decumbens
From the text: as §2

[1] = Postemergence, 31 g ai/ha, scale 0 (no effect) to 100 (complete control)
[2] = Postemergence, 62 g ai/ha, scale 0 to 100 (0 no effect, 100 complete control)
[3] = Postemergence, 125 g ai/ha, scale 0 to 100 (0 no effect, 100 complete control)
[4] = Postemergence, 250 g ai/ha, scale 0 to 100 (0 no effect, 100 complete control)
[5] = Preemergence, 31 g ai/ha, scale 0 to 100 (0 no effect, 100 complete control)
[6] = Preemergence, 62 g ai/ha, scale 0 to 100
[7] = Preemergence, 125 g ai/ha, scale 0 to 100 (0 no effect, 100 complete control)
[8] = Preemergence, 250 g ai/ha, scale 0 to 100 (0 no effect, 100 complete control)
[9] = 125 g ai/ha, scale 0 to 100 (0 no effect, 100 complete control)

O=C1NCC(c2cc(F)c(F)c(F)c2)C1C(=O)Nc1ccccc1F (racemic) [Compound 34]
10: Plant response rating, Bromegrass, Downy (bromegrass, downy; [7]) | Plant response rating, Goosegrass (goosegrass; [1]) | Plant response rating, Goosegrass (goosegrass; [7])
15: Plant response rating, Goosegrass (goosegrass; [2]) | Plant response rating, Goosegrass (goosegrass; [3])
100: Plant response rating, Foxtail, Green (foxtail, green; [8]) | Plant response rating, Surinam Grass (surinam grass; [7])
50: Cupgrass, Woolly plant response rating (cupgrass, woolly; [5])
0: Plant response rating, Foxtail, Green (foxtail, green; [1]) | Plant response rating Sunflower (sunflower; 62 g ai/ha, scale 0 to 100) | Plant response rating Sunflower (sunflower; [9]) | Plant response rating, Bermudagrass (bermudagrass; [1]) | Plant response rating, Bermudagrass (bermudagrass; [2]) | Plant response rating, Bermudagrass (bermudagrass; [3]) | Plant response rating, Bermudagrass (bermudagrass; [4]) | Bermudagrass plant response rating (bermudagrass; [5]) | Plant response rating, Bermudagrass (bermudagrass; [6]) | Plant response rating, Bermudagrass (bermudagrass; [7]) | Plant response rating, Cupgrass, Woolly (cupgrass, woolly; [1]) | Plant response rating, Cupgrass, Woolly (cupgrass, woolly; [2]) | Plant response rating, Cupgrass, Woolly (cupgrass, woolly; [3]) | Plant response rating, Nightshade (nightshade; 62 g ai/ha, scale 0 to 100) | Plant response rating, Nightshade (nightshade; [9]) | Plant response rating, Russian Thistle (Russian thistle; 62 g ai/ha, scale 0 to 100) | Plant response rating, Russian Thistle (Russian thistle; [9]) | Plant response rating, Bromegrass, Downy (bromegrass, downy; [1]) | Plant response rating, Bromegrass, Downy (bromegrass, downy; [2]) | Plant response rating, Bromegrass, Downy (bromegrass, downy; [3]) | Plant response rating, Bromegrass, Downy (bromegrass, downy; [4]) | Bromegrass, Downy plant response rating (bromegrass, downy; [5]) | Plant response rating, Bromegrass, Downy (bromegrass, downy; [6]) | Plant response rating, Cocklebur (cocklebur; [1]) | Cocklebur plant response rating (cocklebur; [5]) | Plant response rating, Cocklebur (cocklebur; [6]) | Plant response rating, Cocklebur (cocklebur; [7]) | Plant response rating, Cocklebur (cocklebur; [8]) | Goosegrass plant response rating (goosegrass; [5]) | Plant response rating, Surinam Grass (surinam grass; [1]) | Plant response rating, Surinam Grass (surinam grass; [2])
85: Plant response rating, Cupgrass, Woolly (cupgrass, woolly; [6])
30: Plant response rating, Cupgrass, Woolly (cupgrass, woolly; [4]) | Plant response rating, Bromegrass, Downy (bromegrass, downy; [8])
55: Plant response rating, Surinam Grass (surinam grass; [3])
5: Plant response rating, Cocklebur (cocklebur; [2]) | Plant response rating, Cocklebur (cocklebur; [3]) | Plant response rating, Goosegrass (goosegrass; [6])
45: Plant response rating, Bermudagrass (bermudagrass; [8])
25: Plant response rating, Cocklebur (cocklebur; [4]) | Plant response rating, Goosegrass (goosegrass; [4])
60: Plant response rating, Foxtail, Green (foxtail, green; [2]) | Plant response rating, Foxtail, Green (foxtail, green; [3]) | Plant response rating, Foxtail, Green (foxtail, green; [4]) | Plant response rating, Surinam Grass (surinam grass; [4])
95: Plant response rating, Cupgrass, Woolly (cupgrass, woolly; [7]) | Plant response rating, Cupgrass, Woolly (cupgrass, woolly; [8]) | Plant response rating, Surinam Grass (surinam grass; [6])
98: Foxtail, Green plant response rating (foxtail, green; [5]) | Plant response rating, Foxtail, Green (foxtail, green; [6]) | Plant response rating, Foxtail, Green (foxtail, green; [7])

Cc1ccccc1NC(=O)C1C(=O)NCC1c1cc(F)c(F)c(F)c1 (racemic) [Compound 35]
100: Plant response rating, Surinam Grass (surinam grass; [7])
80: Plant response rating, Cupgrass, Woolly (cupgrass, woolly; [6])
5: Plant response rating, Bromegrass, Downy (bromegrass, downy; [7]) | Plant response rating, Goosegrass (goosegrass; [7])
98: Plant response rating, Foxtail, Green (foxtail, green; [6]) | Plant response rating, Foxtail, Green (foxtail, green; [7]) | Plant response rating, Foxtail, Green (foxtail, green; [8])
55: Cupgrass, Woolly plant response rating (cupgrass, woolly; [5])
40: Plant response rating, Bromegrass, Downy (bromegrass, downy; [8])
10: Plant response rating Sunflower (sunflower; [9])
0: Plant response rating Sunflower (sunflower; 62 g ai/ha, scale 0 to 100) | Bermudagrass plant response rating (bermudagrass; [5]) | Plant response rating, Bermudagrass (bermudagrass; [6]) | Plant response rating, Bermudagrass (bermudagrass; [7]) | Plant response rating, Nightshade (nightshade; 62 g ai/ha, scale 0 to 100) | Plant response rating, Nightshade (nightshade; [9]) | Plant response rating, Russian Thistle (Russian thistle; 62 g ai/ha, scale 0 to 100) | Bromegrass, Downy plant response rating (bromegrass, downy; [5]) | Plant response rating, Bromegrass, Downy (bromegrass, downy; [6]) | Cocklebur plant response rating (cocklebur; [5]) | Plant response rating, Cocklebur (cocklebur; [6]) | Plant response rating, Cocklebur (cocklebur; [7]) | Plant response rating, Cocklebur (cocklebur; [8]) | Goosegrass plant response rating (goosegrass; [5]) | Plant response rating, Goosegrass (goosegrass; [6])
90: Foxtail, Green plant response rating (foxtail, green; [5]) | Plant response rating, Cupgrass, Woolly (cupgrass, woolly; [8]) | Plant response rating, Surinam Grass (surinam grass; [6])
85: Plant response rating, Cupgrass, Woolly (cupgrass, woolly; [7])
75: Plant response rating, Bermudagrass (bermudagrass; [8])
